Data from ChEMBL document CHEMBL1201862, “PubChem BioAssay data set” (2004).
One block for each molecule: values may come before it. Active and inactive are the calls of the source.

Experiments:
[1] = target: T1, High affinity choline transporter 1 (Homo sapiens, UniProt Q9GZV3); assay: CHT inhibitors, dose response, cell-based, 5-point CRC, membrane potential dye (AID 504840); assay type: functional
T1 sequence (Q9GZV3 whole entry): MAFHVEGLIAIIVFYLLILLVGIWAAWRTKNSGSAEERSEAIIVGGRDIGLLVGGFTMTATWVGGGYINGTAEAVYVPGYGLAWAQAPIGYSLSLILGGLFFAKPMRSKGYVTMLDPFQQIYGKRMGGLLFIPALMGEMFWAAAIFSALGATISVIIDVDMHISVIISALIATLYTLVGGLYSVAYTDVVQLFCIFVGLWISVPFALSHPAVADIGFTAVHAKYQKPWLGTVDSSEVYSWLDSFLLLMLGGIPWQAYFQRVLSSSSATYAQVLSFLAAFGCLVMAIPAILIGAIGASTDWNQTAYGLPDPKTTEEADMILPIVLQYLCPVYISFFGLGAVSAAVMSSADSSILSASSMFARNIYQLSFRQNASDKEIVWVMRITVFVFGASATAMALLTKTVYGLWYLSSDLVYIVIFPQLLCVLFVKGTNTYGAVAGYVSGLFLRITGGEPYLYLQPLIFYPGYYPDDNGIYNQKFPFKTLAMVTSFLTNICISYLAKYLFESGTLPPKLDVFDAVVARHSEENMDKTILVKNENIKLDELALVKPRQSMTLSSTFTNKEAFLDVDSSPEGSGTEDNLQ

[2] = target: T1, High affinity choline transporter 1; assay: CHT inhibitors, dose response, cell-based, 10-point CRC, membrane potential dye (AID 588401); assay type: functional;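 further: membrane potential dye fluorescence of choline-evoked depolarization via CHT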
[3] = target: 26S proteasome non-ATPase regulatory subunit 14 (Homo sapiens, UniProt O00487); assay: inhibition of proteasome subunit RPN11 – biochemical, fluorescence polarization, uHTS hits, confirmation (AID 602368); assay type: functional
[4] = target: 72 kDa type IV collagenase (Homo sapiens, UniProt P08253); assay: Dose Response validation of uHTS RPN11 inhibitor hits using a MMP-2 Fluorescence assay.; assay type: functional
Prothrombin = Prothrombin (Bos taurus, UniProt P00735); assay: thrombin inhibition, dose response, biochemical, fluorescence polarization, uHTS hits (AID 602369); assay type: functional
[5] = AlphaScreen signal interference compounds, dose response, artefact control for ARNT-TACC3 interaction inhibitor project, biochemical, luminescence, cherry-pick (AID 651705); assay type: functional;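 further: AlphaScreen bead proximity signal that flags compounds interfering with the detection technology; potency reflects signal decrease which marks the compound as an assay artifact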
Estrogen receptor beta = Estrogen receptor beta (Homo sapiens, UniProt Q92731); assay: ERβ–SRC-3 coactivator interaction inhibitors, confirmation, orthogonal assay, biochemical, ELISA, streptavidin-HRP readout (AID 1060)
[6] = target: T2, Carboxy-terminal domain RNA polymerase II polypeptide A small phosphatase 1 (Homo sapiens, UniProt Q9GZU7); assay: inhibitors of CTDSP1, concentration-response testing, biochemical assay, absorbance-based, actives from ultra-high-throughput screening (AID 540297); assay type: functional
T2 sequence (Q9GZU7 whole entry): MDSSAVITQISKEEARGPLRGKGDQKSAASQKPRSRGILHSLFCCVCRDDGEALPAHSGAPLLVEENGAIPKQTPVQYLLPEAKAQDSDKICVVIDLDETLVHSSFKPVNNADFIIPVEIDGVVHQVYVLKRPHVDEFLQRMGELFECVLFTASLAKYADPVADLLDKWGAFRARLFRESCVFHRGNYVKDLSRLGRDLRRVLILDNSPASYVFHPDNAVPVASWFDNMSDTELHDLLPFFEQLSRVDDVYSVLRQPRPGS

[7] = target: DNA (cytosine-5)-methyltransferase 1 (Homo sapiens, UniProt P26358); assay: DNMT1 methyltransferase inhibitors, confirmation, biochemical, fluorescent molecular beacon (AID 602386); assay type: functional
[8] = growth suppression of PTEN-null colon cells, dose response, cell-based, HCT116 PTEN knockout (AID 1047); assay type: functional;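 further: HCT116 colon tumor cells with PTEN knocked out; cells exposed to compound for 60 hours before readout; potency for loss of cell viability measured by luminescence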
[9] = growth suppression of beta-catenin-knockout colon cells, dose response, cell-based, HCT116, human colon tumor (AID 1045); assay type: functional;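 further: HCT116 colon tumor cells with beta catenin knocked out; cells exposed to compound for 60 hours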
[10] = Shn3 3'UTR reporter inhibitors, dose response, cell-based, Clone20 osteoblasts, firefly luciferase, cherry-picked (AID 624132); assay type: functional;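 further: firefly luciferase luminescence from reporter carrying the Shn3 3'UTR in osteoblasts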
[11] = HepG2 cell cytotoxicity, dose response, cytotoxicity control for Shn3 inhibitor project, CellTiter-Glo, cherry-picked (AID 624134); assay type: functional, cell-based
[12] = control 3'UTR Renilla luciferase suppression, dose response, counter-screen for Shn3 inhibitor project, cell-based, Clone20-Shn3RL, cherry-picked (AID 624133); assay type: functional
Fatty acid synthase [13] = target: T3, Fatty acid synthase (Homo sapiens, UniProt P49327); assay: FAS thioesterase domain inhibitors, dose response, biochemical, endpoint fluorescence intensity, uHTS hits (AID 624327); assay type: functional;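 further: fluorescence from hydrolysis of an O-methyl fluorescein acyl ester substrate by the enzyme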
Fatty acid synthase [14] = target: T3, Fatty acid synthase; assay: FAS thioesterase domain inhibitors, dose response, biochemical, kinetic fluorescence intensity (AID 624326); assay type: functional;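 further: rate of fluorescence rise from hydrolysis of a fluorogenic O-methyl fluorescein ester substrate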
Protein Wnt-3a = Protein Wnt-3a (Mus musculus, UniProt P27467); assay: Wnt3a-driven reporter signaling inhibition, dose response, selectivity assay for Gli-SUFU antagonist project, Wnt-LIGHT cells, luminescence (AID 651570); assay type: functional; settings: read-out: IC50_Mean;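 further: Wnt-LIGHT reporter cells stimulated with conditioned medium from Wnt3a-producing cells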
[15] = NIH-3T3 fibroblast cytotoxicity, dose response, cytotoxicity control for antifungal single agent project, cell-based, Alamar Blue, dry powder (AID 602188); assay type: functional
[16] = target: T4, Apoptotic protease-activating factor 1 (Homo sapiens, UniProt O14727); assay: SAR analysis of small molecule Activators of Apaf-1 in a Fluorescent assay.; assay type: functional; settings: read-out: EC50_Mean;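 further: caspase-3 cleavage of fluorogenic Rh110 DEVD substrate downstream of apoptosome activation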
T4 sequence (O14727 whole entry): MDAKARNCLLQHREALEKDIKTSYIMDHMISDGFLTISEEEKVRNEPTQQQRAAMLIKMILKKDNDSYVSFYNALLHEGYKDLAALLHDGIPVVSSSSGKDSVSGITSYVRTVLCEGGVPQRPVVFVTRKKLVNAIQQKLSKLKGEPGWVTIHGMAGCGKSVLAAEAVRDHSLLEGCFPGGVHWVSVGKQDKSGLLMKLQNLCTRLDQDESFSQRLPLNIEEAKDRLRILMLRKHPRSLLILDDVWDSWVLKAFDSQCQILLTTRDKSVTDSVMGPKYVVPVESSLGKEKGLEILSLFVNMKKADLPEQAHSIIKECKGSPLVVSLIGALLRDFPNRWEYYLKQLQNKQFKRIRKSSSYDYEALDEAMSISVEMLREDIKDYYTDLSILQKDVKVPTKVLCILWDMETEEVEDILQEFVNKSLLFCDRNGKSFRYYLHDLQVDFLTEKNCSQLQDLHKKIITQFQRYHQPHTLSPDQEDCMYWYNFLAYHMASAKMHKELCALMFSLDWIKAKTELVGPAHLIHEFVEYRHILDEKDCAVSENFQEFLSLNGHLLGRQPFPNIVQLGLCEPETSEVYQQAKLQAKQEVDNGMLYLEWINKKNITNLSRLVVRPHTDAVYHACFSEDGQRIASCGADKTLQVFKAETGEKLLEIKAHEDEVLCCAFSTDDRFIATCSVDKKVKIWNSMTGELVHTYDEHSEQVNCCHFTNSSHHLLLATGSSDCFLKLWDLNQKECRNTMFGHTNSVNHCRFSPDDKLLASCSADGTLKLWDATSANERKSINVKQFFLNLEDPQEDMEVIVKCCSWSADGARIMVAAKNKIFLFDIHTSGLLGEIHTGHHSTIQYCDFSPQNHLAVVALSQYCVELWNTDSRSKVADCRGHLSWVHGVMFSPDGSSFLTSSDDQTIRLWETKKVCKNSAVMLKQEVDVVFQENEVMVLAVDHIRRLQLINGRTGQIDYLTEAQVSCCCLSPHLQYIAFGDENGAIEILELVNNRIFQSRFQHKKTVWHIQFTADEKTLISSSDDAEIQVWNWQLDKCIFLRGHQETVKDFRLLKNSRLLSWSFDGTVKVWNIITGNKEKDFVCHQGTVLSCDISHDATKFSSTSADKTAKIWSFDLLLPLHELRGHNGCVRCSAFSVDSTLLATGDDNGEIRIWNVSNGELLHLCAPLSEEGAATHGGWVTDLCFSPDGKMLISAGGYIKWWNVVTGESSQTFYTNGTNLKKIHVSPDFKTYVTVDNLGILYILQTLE

[17] = target: Hepatocyte nuclear factor 4-alpha (Homo sapiens, UniProt P41235); assay type: functional, cell-based;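 further: biochemical luminescence-based dose-response counterscreen measuring inhibition of HNF4 dimerization, run alongside a screen for blockers of ABHD5–perilipin-5 interaction; split luciferase complementation of HNF4 fusion proteins in cell lysate measuring dimerization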
[18] = target: T5, Rac GTPase-activating protein 1 (Homo sapiens, UniProt Q9H0H5); assay: MgcRacGAP GTPase-activating activity inhibitors, confirmation, biochemical, ADP Hunter fluorescence, primary and confirmatory (AID 624330); assay type: functional
T5 sequence (Q9H0H5 whole entry): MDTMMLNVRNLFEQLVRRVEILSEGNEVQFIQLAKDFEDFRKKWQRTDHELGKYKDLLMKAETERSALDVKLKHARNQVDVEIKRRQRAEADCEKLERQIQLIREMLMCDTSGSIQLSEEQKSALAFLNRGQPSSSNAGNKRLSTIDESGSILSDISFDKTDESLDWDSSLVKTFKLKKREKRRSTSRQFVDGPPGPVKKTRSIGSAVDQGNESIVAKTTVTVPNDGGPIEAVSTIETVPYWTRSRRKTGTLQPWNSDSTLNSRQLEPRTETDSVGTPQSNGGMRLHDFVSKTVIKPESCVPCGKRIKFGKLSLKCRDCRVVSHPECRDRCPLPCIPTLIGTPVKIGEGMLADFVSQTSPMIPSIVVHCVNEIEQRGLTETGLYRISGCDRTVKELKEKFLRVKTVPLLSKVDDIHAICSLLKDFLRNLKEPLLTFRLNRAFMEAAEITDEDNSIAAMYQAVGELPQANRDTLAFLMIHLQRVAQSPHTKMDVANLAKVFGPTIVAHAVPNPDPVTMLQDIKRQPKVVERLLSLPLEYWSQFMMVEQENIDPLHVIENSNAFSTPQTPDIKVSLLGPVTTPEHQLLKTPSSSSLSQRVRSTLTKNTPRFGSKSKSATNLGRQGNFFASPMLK

[19] = target: DNA repair and recombination protein RAD54-like (Homo sapiens, UniProt Q92698); assay: inhibitors of human RAD54 branch migration, confirmation, biochemical, fluorescence, cherry-picked samples, dose series (AID 651657); assay type: functional
[20] = target: T6, DNA repair protein RAD52 homolog (Homo sapiens, UniProt P43351); assay type: functional, biochemical
T6 sequence (P43351 whole entry): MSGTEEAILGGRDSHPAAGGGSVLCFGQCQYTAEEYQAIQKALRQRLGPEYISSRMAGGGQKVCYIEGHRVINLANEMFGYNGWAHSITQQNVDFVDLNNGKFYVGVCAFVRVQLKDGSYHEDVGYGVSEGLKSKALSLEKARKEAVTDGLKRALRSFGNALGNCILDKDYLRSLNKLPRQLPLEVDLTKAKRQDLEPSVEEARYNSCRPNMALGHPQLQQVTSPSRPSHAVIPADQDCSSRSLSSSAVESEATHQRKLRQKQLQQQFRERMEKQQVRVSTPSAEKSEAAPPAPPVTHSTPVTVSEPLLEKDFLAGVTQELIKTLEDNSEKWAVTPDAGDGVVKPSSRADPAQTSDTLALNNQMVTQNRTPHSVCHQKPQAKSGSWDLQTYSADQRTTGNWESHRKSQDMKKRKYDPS

[21] = HeLa 2N DNA content increase, dose response, cell-based, IC50 (AID 1117349); assay type: functional
[22] = HeLa 4N DNA content increase, dose response, cell-based, IC50 (AID 1117351); assay type: functional

T3 sequence (P49327 whole entry, the tested form may be a part): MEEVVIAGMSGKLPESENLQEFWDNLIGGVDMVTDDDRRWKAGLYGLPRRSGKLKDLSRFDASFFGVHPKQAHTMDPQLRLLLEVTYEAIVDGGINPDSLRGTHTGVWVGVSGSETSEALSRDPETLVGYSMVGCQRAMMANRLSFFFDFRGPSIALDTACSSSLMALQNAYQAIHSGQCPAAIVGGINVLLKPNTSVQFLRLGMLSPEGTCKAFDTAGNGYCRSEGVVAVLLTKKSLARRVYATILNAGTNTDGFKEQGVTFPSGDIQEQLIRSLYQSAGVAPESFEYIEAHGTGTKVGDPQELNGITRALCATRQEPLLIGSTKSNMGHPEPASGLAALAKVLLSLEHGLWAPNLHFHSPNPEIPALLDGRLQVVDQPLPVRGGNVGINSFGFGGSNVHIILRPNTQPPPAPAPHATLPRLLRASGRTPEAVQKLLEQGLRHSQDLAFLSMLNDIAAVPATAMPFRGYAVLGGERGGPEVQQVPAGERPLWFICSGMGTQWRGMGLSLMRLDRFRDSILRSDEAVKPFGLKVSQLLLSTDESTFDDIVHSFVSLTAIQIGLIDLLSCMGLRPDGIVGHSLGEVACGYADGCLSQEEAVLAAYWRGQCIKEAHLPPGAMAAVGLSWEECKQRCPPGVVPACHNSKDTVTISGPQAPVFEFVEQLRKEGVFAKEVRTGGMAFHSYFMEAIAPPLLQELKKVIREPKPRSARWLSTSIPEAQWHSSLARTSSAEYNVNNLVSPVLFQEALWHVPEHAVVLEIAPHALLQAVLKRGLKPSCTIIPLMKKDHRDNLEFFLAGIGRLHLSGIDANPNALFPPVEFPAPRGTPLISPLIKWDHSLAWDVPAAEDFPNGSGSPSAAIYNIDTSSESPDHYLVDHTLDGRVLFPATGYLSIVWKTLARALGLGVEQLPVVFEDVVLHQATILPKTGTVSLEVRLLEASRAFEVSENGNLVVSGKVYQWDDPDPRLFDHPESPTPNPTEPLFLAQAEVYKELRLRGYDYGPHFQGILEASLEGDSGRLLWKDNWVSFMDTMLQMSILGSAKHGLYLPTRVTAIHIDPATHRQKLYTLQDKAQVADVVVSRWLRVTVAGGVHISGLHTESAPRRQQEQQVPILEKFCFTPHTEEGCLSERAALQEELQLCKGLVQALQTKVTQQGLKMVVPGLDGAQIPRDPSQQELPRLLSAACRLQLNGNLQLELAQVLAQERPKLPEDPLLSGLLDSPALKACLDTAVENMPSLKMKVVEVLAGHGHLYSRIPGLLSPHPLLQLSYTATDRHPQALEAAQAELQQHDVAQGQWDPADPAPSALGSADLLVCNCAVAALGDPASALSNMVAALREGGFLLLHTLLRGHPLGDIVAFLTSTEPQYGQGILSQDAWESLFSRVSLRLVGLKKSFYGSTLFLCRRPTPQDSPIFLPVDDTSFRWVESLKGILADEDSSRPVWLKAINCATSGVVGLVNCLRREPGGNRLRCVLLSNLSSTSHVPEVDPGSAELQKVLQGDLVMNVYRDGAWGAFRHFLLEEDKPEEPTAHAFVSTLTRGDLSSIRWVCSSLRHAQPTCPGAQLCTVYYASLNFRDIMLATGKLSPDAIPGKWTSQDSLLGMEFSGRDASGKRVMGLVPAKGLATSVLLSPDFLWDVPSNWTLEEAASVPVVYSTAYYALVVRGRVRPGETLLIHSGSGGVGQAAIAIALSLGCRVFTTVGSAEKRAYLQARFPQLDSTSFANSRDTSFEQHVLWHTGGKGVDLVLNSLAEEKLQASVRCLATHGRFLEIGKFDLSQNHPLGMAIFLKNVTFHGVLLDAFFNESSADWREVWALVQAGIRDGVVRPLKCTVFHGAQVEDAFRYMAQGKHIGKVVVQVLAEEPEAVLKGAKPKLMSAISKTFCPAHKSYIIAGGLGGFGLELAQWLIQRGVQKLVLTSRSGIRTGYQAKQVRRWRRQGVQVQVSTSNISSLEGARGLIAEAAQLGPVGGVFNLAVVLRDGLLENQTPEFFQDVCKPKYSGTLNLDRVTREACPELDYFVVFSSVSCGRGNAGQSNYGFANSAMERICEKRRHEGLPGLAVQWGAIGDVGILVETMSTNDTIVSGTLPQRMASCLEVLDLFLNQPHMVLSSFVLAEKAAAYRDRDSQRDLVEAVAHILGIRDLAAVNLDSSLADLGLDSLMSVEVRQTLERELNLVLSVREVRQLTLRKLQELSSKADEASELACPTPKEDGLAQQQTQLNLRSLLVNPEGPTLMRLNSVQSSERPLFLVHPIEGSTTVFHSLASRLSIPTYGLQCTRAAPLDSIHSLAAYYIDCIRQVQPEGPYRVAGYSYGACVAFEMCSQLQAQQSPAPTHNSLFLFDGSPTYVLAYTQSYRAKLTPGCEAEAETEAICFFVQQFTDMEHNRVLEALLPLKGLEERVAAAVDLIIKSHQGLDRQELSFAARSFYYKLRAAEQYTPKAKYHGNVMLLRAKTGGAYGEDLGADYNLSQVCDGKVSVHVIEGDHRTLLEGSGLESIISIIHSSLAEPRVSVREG
Sequence of 26S proteasome non-ATPase regulatory subunit 14 (O00487 whole entry): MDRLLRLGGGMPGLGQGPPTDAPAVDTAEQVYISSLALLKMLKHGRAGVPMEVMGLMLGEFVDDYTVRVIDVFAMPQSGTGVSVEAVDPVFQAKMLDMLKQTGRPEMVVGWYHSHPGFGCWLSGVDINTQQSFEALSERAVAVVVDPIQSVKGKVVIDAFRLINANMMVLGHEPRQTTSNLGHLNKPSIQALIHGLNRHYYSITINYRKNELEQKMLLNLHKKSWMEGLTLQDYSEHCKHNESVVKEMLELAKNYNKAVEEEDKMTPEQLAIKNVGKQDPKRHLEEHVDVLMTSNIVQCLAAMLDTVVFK
Sequence of 72 kDa type IV collagenase (P08253 whole entry): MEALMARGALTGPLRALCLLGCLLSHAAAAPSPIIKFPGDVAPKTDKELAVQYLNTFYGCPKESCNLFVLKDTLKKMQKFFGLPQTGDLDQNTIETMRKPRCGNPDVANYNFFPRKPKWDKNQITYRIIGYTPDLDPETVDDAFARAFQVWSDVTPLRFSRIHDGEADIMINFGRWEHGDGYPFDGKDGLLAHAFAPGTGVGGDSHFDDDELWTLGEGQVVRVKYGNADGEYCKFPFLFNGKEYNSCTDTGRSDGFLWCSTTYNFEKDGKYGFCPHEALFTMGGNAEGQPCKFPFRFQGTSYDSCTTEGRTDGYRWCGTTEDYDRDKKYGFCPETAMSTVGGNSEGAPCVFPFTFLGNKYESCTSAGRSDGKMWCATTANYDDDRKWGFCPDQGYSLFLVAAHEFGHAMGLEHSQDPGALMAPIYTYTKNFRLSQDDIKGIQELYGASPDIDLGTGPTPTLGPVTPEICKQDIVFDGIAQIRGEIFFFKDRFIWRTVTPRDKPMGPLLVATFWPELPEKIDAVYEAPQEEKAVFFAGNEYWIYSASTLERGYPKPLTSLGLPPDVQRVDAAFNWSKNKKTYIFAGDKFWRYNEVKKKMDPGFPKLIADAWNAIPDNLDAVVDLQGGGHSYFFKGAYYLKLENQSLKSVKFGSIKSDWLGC
Sequence of Estrogen receptor beta (Q92731 whole entry, the tested form may be a part): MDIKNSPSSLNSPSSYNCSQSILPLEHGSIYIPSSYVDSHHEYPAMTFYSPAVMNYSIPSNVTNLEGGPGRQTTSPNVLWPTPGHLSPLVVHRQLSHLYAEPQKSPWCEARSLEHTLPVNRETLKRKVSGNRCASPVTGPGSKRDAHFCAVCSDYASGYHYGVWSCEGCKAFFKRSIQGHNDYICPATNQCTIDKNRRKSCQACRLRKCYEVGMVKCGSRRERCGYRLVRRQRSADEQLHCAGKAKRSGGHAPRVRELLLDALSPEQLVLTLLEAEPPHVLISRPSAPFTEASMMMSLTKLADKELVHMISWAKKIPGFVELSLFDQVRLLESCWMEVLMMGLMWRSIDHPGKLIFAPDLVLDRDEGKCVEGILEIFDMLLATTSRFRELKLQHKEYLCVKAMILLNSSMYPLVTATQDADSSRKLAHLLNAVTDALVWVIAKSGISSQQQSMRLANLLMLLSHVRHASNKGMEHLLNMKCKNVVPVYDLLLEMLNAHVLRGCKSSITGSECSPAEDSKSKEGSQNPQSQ
Sequence of DNA repair and recombination protein RAD54-like (Q92698 whole entry): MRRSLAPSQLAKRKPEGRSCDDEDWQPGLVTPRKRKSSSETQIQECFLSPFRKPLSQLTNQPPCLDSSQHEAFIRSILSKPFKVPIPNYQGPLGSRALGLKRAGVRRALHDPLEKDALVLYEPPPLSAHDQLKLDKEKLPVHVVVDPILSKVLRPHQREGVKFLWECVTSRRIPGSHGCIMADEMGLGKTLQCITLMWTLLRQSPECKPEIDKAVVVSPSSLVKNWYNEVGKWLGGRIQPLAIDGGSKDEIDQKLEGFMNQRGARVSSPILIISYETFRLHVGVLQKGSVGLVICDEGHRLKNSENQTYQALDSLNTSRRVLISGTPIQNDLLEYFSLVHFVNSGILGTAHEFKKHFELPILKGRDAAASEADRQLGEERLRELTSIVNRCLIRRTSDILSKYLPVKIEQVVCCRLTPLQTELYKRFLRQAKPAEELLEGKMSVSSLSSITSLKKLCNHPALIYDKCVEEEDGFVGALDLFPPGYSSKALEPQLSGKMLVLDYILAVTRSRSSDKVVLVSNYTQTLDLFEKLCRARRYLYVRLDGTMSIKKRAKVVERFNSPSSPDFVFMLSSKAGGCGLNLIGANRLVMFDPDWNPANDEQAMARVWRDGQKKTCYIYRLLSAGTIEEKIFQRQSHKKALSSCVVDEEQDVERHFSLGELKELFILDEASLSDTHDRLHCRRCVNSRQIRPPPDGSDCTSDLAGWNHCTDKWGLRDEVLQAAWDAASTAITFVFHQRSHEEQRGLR

Structure (SMILES): CC(=O)[C@H]1[C@@H]2C(=O)N(c3cccc(Cl)c3)C(=O)[C@@H]2[C@H]2c3ccccc3C=CN21
AC50 [5]: 122 µM (active)

Structure (SMILES): CCCCn1c(CN2CCN(c3ccccc3)CC2)nc2c1c(=O)n(C)c(=O)n2C
EC50 [8]: 38.9 µM (active) | EC50 [9]: 21.9 µM (active) | IC50 [1]: 4.27 µM (active) | IC50 [2]: 1.96 µM (active) | AC50 [10]: 2.05 µM (active) | AC50 [11]: 6.34 µM (active) | AC50 [12]: 1.27 µM (active) | IC50 (Fatty acid synthase [13]): 15.3 µM (active) | IC50 (Fatty acid synthase [14]): 21.5 µM (inactive)

Structure (SMILES): O=C(N[C@@H]1C/C=C\C[C@H](CC(=O)N(CCO)Cc2ccccc2)C(=O)N[C@@H](Cc2c[nH]c3ccccc23)COC1=O)OCC1c2ccccc2-c2ccccc21
IC50 (Protein Wnt-3a): 8.54 µM (active)

Structure (SMILES): Oc1c(C(c2ccc(Cl)cc2)N2CCCC2)ccc2cccnc12 (stereo not given)
AC50 [15]: 1.71 µM (active)

Structure (SMILES): CC1(C)C2CCC(CN=C(N)CSS(=O)(=O)O)C1C2 (stereo not given)
IC50 [17]: 4.45 µM (active) | IC50 [18]: 65.3 µM (active)

Structure (SMILES): CCN(CC)CCNc1ccc(CO)c2sc3ccccc3c(=O)c12 [HYCANTHONE]
AC50 [19]: 6.95 µM (active) | AC50 [20]: 9.33 µM (active) | IC50 [21]: 5.68 µM (inactive) | IC50 [22]: > 10 µM (inactive)

Results, then the molecule that gave them:

IC50 [1]: 10.3 µM (active) | IC50 [2]: 6.96 µM (active)
Structure (SMILES): CCCC(=O)NC(=S)Nc1cccc(NC(=O)c2ccccc2Cl)c1

IC50 [3]: 69 µM (active) | IC50 [4]: > 100 µM (inactive) | IC50 (Prothrombin): 47.8 µM (active)
Structure (SMILES): CCC(C)Sc1ccc([C@@H]2[C@H]3C(=O)N(CC)C(=O)[C@H]3[C@]3(C(=O)OC)CCCCN23)cc1 (stereo not given in full)

IC50 (Estrogen receptor beta): > 50 µM (not active) | IC50 [6]: 4.1 µM (active) | IC50 [7]: 11 µM (active) | IC50 [3]: 16.3 µM (active) | IC50 [4]: 29.3 µM (active) | IC50 (Prothrombin): 33.9 µM (active)
Structure (SMILES): Cc1ccc(C(=O)O)cc1-c1ccc(/C=C2/NC(=O)N(c3ccccc3)C2=O)o1

EC50 [16]: > 100 µM (inactive)
Structure (SMILES): O=C(O)c1coc(-c2cc3ccccc3s2)n1
